Source: patent publication US20120046306A1, “Substituted Heteroaryl Spiropyrrolidine MDM2 Antagonists” (priority 2010, published 2012)

Target: interaction between p53 and MDM2 proteins (Homo sapiens, UniProt Q00987)
Experiment: HTRF assay of inhibition of p53-MDM2 interaction
Assay type: binding
Settings: GST-MDM2 and biotinylated p53 peptide, bsa: 0.02%
Method: The ability of the compounds to inhibit the interaction between p53 and MDM2 proteins was measured by an HTRF (homogeneous time-resolved fluorescence) assay in which recombinant GST-tagged MDM2 binds to a peptide that resembles the MDM2-interacting region of p53. Binding of GST-MDM2 protein and p53-peptide (biotinylated on its N-terminal end) is registered by the FRET (fluorescence resonance energy transfer) between Europium (Eu)-labeled anti-GST antibody and streptavidin-conjugated Allophycocyanin (APC).
Add 20 uL streptavidin-APC and Eu-anti-GST antibody mixture (6 nM Eu-anti-GST and 60 nM streptavidin-APC working solution) in TBS buffer with 0.2% BSA, shake at room temperature for 30 minutes and read using a TRF-capable plate reader at
If not specified, the reagents were purchased from Sigma Chemical Co.

Chain of interaction between p53 and MDM2 proteins (Q00987 whole entry): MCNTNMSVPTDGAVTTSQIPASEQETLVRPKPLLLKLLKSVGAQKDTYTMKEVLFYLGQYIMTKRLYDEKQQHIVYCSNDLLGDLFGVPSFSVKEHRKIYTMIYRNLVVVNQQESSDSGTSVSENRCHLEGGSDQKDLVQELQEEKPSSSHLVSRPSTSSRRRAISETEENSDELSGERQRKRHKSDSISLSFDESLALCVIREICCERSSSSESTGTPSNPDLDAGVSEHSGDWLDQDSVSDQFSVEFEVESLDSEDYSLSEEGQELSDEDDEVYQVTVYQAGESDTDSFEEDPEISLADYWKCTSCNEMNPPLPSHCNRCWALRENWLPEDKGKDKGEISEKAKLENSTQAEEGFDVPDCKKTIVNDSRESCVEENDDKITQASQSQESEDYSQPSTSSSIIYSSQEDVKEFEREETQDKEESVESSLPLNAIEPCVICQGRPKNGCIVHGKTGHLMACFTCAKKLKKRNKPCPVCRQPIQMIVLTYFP

| Structure (SMILES) | IC50 |
| --- | --- |
| CC(C)(C)C[C@@H]1N[C@@H](C(=O)Nc2ccc(C(=O)O)cc2)[C@H](c2cccc(Cl)c2F)[C@]12C(=O)Nc1cc(Cl)ncc12 (racemic) [Example 28, rac-4-((2S,3R,4S,5R)-6′-chloro-4-(3-chloro-2-fluorophenyl)-2-neopentyl-2′-oxo-1′,2′-dihydrospiro[pyrrolidine-3,3′-pyrrolo[3,2-c]pyridine]-5-ylcarboxamido)benzoic acid] | 10.5 nM |
| COC(=O)c1ccc(NC(=O)[C@@H]2N[C@@H](CC(C)(C)C)[C@@]3(C(=O)Nc4cc(Cl)sc43)[C@H]2c2cccc(Cl)c2F)c(OC)c1 (racemic) [Example 96, methyl rac-4-((2S,3R,4R,5R)-2′-chloro-4-(3-chloro-2-fluorophenyl)-2-neopentyl-5′-oxo-4′,5′-dihydrospiro[pyrrolidine-3,6′-thieno[3,2-b]pyrrole]-5-ylcarboxamido)-3-methoxybenzoate] | 22.7 nM |
| COc1cc(C(=O)O)ccc1NC(=O)[C@@H]1N[C@@H](CC(C)(C)C)[C@@]2(C(=O)Nc3c(Cl)ccnc32)[C@H]1c1cccc(Cl)c1F (racemic) [Example 124, rac-4-((2S,3S,4S,5R)-7′-chloro-4-(3-chloro-2-fluorophenyl)-2-neopentyl-2′-oxo-1′,2′-dihydrospiro[pyrrolidine-3,3′-pyrrolo[3,2-b]pyridine]-5-ylcarboxamido)-3-methoxybenzoic acid] | 1010 nM |
| COC(=O)c1ccc(NC(=O)[C@@H]2N[C@@H](CC(C)(C)C)[C@@]3(C(=O)Nc4cc(C)ncc43)[C@H]2c2cccc(Cl)c2F)c(OC)c1 (racemic) [Example 119, methyl rac-4-((2S,3R,4S,5R)-4-(3-chloro-2-fluorophenyl)-6′-methyl-2-neopentyl-2′-oxo-1′,2′-dihydrospiro[pyrrolidine-3,3′-pyrrolo[3,2-c]pyridine]-5-ylcarboxamido)-3-methoxybenzoate] | 11.6 nM |
| COC(=O)c1ccc(NC(=O)[C@@H]2N[C@@H](CC(C)(C)C)[C@@]3(C(=O)Nc4cc(F)cnc43)[C@H]2c2cccc(Cl)c2F)c(OC)c1 (racemic) [Example 83, methyl rac-4-((2S,3S,4S,5R)-4-(3-chloro-2-fluorophenyl)-6′-fluoro-2-neopentyl-2′-oxo-1′,2′-dihydrospiro[pyrrolidine-3,3′-pyrrolo[3,2-b]pyridine]-5-ylcarboxamido)-3-methoxybenzoate] | 19.5 nM |
| COC(=O)c1ccc(NC(=O)[C@@H]2N[C@@H](CC(C)(C)C)[C@@]3(C(=O)Nc4cc(O)ncc43)[C@H]2c2cccc(Cl)c2F)c(OC)c1 (racemic) [Example 113, methyl rac-4-((2S,3R,4S,5R)-4-(3-chloro-2-fluorophenyl)-6′-hydroxy-2-neopentyl-2′-oxo-1′,2′-dihydrospiro[pyrrolidine-3,3′-pyrrolo[3,2-c]pyridine]-5-ylcarboxamido)-3-methoxybenzoate] | > 10000 nM |
| COc1cc(OCCOC(C)=O)ccc1NC(=O)[C@@H]1N[C@@H](CC(C)(C)C)[C@@]2(C(=O)Nc3cc(Cl)ncc32)[C@H]1c1cccc(Cl)c1F (racemic) [Example 116, rac-2-(4-((2S,3R,4S,5R)-6′-chloro-4-(3-chloro-2-fluorophenyl)-2-neopentyl-2′-oxo-1′,2′-dihydrospiro[pyrrolidine-3,3′-pyrrolo[3,2-c]pyridine]-5-ylcarboxamido)-3-methoxyphenoxy)ethyl acetate] | 12 nM |
| COC(=O)c1ccc(NC(=O)[C@@H]2N[C@@H](CC(C)(C)C)[C@@]3(C(=O)Nc4cc(OC)ncc43)[C@H]2c2cccc(Cl)c2F)c(OC)c1 (racemic) [Example 110, methyl rac-4-((2S,3R,4S,5R)-4-(3-chloro-2-fluorophenyl)-6′-methoxy-2-neopentyl-2′-oxo-1′,2′-dihydrospiro[pyrrolidine-3,3′-pyrrolo[3,2-c]pyridine]-5-ylcarboxamido)-3-methoxybenzoate] | 13.6 nM |
| COc1cc(C(N)=O)ccc1NC(=O)[C@@H]1N[C@@H](CC(C)(C)C)[C@@]2(C(=O)Nc3cc(Cl)cnc32)[C@H]1c1cccc(Br)c1F (racemic) [Example 69, rac-(2S,3S,4S,5R)-4-(3-bromo-2-fluorophenyl)-N-(4-carbamoyl-2-methoxyphenyl)-6′-chloro-2-neopentyl-2′-oxo-1′,2′-dihydrospiro[pyrrolidine-3,3′-pyrrolo[3,2b]pyridine]-5-carboxamide] | 12.9 nM |
| COc1cc(C(=O)O)ccc1NC(=O)[C@@H]1N[C@@H](CC(C)(C)C)[C@@]2(C(=O)Nc3cc(O)ncc32)[C@H]1c1cccc(Cl)c1F (racemic) [Example 114, rac-4-((2S,3R,4S,5R)-4-(3-chloro-2-fluorophenyl)-6′-hydroxy-2-neopentyl-2′-oxo-1′,2′-dihydrospiro[pyrrolidine-3,3′-pyrrolo[3,2-c]pyridine]-5-ylcarboxamido)-3-methoxybenzoic acid] | > 10000 nM |
| COC(=O)c1ccc(NC(=O)[C@@H]2N[C@@H](CC(C)(C)C)[C@]3(C(=O)Nc4nc(Cl)ncc43)[C@H]2c2cccc(Cl)c2F)c(OC)c1 (racemic) [Example 91, methyl rac-4-{(2S,3S,4S,5R)-2′-chloro-4-(3-chloro-2-fluorophenyl)-2-neopentyl-6′-oxo-6′,7′-dihydrospiro[pyrrolidine-3,5′-pyrrolo[2,3-d]pyrimidine]-5-ylcarboxamido}-3-methoxybenzoate] | 10.7 nM |
| COc1cc(C(N)=O)ccc1NC(=O)[C@@H]1N[C@@H](CC(C)(C)C)[C@@]2(C(=O)Nc3cc(F)cnc32)[C@H]1c1cccc(Cl)c1F (racemic) [Example 86, rac-(2S,3S,4S,5R)-N-(4-carbamoyl-2-methoxyphenyl)-4-(3-chloro-2-fluorophenyl)-6′-fluoro-2-neopentyl-2′-oxo-1′,2′-dihydrospiro[pyrrolidine-3,3′-pyrrolo[3,2b]pyridine]-5-carboxamide] | 18.7 nM |
| COC(=O)c1ccc(NC(=O)[C@@H]2N[C@@H](CC(C)(C)C)[C@@]3(C(=O)Nc4cc(Cl)cnc43)[C@H]2c2cccc(Br)c2F)c(OC)c1 (racemic) [Example 66, methyl rac-4-{(2S,3R,4S,5R)-4-(3-bromo-2-fluorophenyl)-6′-chloro-2-neopentyl-2′-oxo-1′,2′-dihydrospiro[pyrrolidine-3,3′-pyrrolo[3,2-b]pyridine]-5-ylcarboxamido}-3-methoxybenzoate] | 1830 nM |
| COc1cc(OCCO)ccc1NC(=O)[C@@H]1N[C@@H](CC(C)(C)C)[C@@]2(C(=O)Nc3cc(Cl)ncc32)[C@H]1c1cccc(Cl)c1F (racemic) [Example 117, rac-(2S,3R,4S,5R)-6′-chloro-4-(3-chloro-2-fluorophenyl)-N-(4-(2-hydroxyethoxy)-2-methoxyphenyl)-2-neopentyl-2′-oxo-1′,2′-dihydrospiro[pyrrolidine-3,3′-pyrrolo[3,2-c]pyridine]-5-carboxamide] | 14 nM |
| COc1cc2c(cn1)[C@@]1(C(=O)N2)[C@H](CC(C)(C)C)N[C@@H](C(=O)Nc2ccc(C(=O)O)cc2OC)[C@@H]1c1cccc(Cl)c1F (racemic) [Example 111, rac-4-((2S,3R,4S,5R)-4-(3-chloro-2-fluorophenyl)-6′-methoxy-2-neopentyl-2′-oxo-1′,2′-dihydrospiro[pyrrolidine-3,3′-pyrrolo[3,2-c]pyridine]-5-ylcarboxamido)-3-methoxybenzoic acid] | 7 nM |
| COc1cc(OCCO)ccc1NC(=O)[C@@H]1N[C@@H](CC(C)(C)C)[C@@]2(C(=O)Nc3cc(Cl)cnc32)[C@H]1c1cccc(Cl)c1F [Example 75, (2S,3S,4S,5R)-6′-chloro-4-(3-chloro-2-fluorophenyl)-N-(4-(2-hydroxyethoxy)-2-methoxyphenyl)-2-neopentyl-2′-oxo-1′,2′-dihydrospiro[pyrrolidine-3,3′-pyrrolo[3,2-b]pyridine]-5-carboxamide] | 6.4 nM |
| COC(=O)c1ccc(NC(=O)[C@@H]2N[C@@H](CC(C)(C)C)[C@@]3(C(=O)Nc4ncccc43)[C@H]2c2cccc(Cl)c2F)c(OC)c1 (racemic) [Example 13, methyl rac-4-((2S,3R,4S,5R)-4-(3-chloro-2-fluorophenyl)-2-neopentyl-2′-oxo-1′,2′-dihydrospiro[pyrrolidine-3,3′-pyrrolo[2,3-b]pyridine]-5-ylcarboxamido)-3-methoxybenzoate] | 30.3 nM |
| COc1cc(C(N)=O)ccc1NC(=O)[C@@H]1N[C@@H](CC(C)(C)C)[C@@]2(C(=O)Nc3cc(C)ncc32)[C@H]1c1cccc(Cl)c1F (racemic) [Example 121, rac-(2S,3R,4S,5R)-N-(4-carbamoyl-2-methoxyphenyl)-4-(3-chloro-2-fluorophenyl)-6′-methyl-2-neopentyl-2′-oxo-1′,2′-dihydrospiro[pyrrolidine-3,3′-pyrrolo[3,2-c]pyridine]-5-carboxamide] | 11.8 nM |
| COC(=O)c1ccc(NC(=O)[C@@H]2N[C@@H](CC(C)(C)C)[C@@]3(C(=O)Nc4ccncc43)[C@H]2c2cccc(Cl)c2F)c(OC)c1 (racemic) [Example 6, methyl rac-4-((2S,3R,4S,5R)-4-(3-chloro-2-fluorophenyl)-2-neopentyl-2′-oxo-1′,2′-dihydrospiro[pyrrolidine-3,3′-pyrrolo[3,2-c]pyridine]-5-ylcarboxamido)-3-methoxybenzoate] | 32.4 nM |
| COc1cc(OCCO)ccc1NC(=O)[C@@H]1N[C@@H](CC(C)(C)C)[C@@]2(C(=O)Nc3nc(Cl)ncc32)[C@H]1c1cccc(Cl)c1F (racemic) [Example 89, rac-(2S,3R,4S,5R)-2′-chloro-4-(3-chloro-2-fluorophenyl)-N-[4-(2-hydroxyethoxy)-2-methoxyphenyl]-2-neopentyl-6′-oxo-6′,7′-dihydrospiro[pyrrolidine-3,5′-pyrrolo[2,3-d]pyrimidine]-5-carboxamide] | 11.7 nM |
